Series [1] has as its system mice. The series can be described thus: Chimney test. It counts as in vivo. The note with it: Mus musculus, ip, intraperitoneal, failure to back up and out of vertical glass cylinder within 30 seconds, read-out: ED50, Chimney test (Ch). The text has this:
(§1) Sedative effects of 8-chloro-1-(hydroxymethyl)-6-phenyl-4H-s-triazolo[4,3-a][1,4]benzodiazepine (A) are shown by the following tests in mice:
The test determines the ability of mice to back up and out of a vertical glass cylinder within 30 seconds. At the effective dosage, 50% of the mice failed doing it.

Series [2] has as its system mice. The series can be described thus: Nicotine antagonism test. The note with it: Mus musculus, ip, intraperitoneal, nicotine salicylate 2 mg./kg. thirty minutes later. The format is in vivo. The procedure: as §1
Nicotine antagonism test: Mice in a group of 6 are injected with the test compound-8-chloro-1-(hydroxymethyl)-6phenyl-4H-s-triazolo[4,3-a][1,4]benzodiazepine. Thirty minutes later the mice including control (untreated) mice are injected with nicotine salicylate (2 mg./kg.). The control mice show overstimulation, i.e., (1) running convulsions followed by (2) tonic extensor fits; followed by (3) death. […] (ED50) was necessary.

Series [3] relates to mice. The series can be described thus: Pedestal test. It counts as in vivo. The settings on record: Mus musculus, ip, intraperitoneal, stay on the pedestal for more than 1 minute, read-out: ED50, Pedestal test (P). The procedure:
as §1
Pedestal test: The untreated mouse leaves the pedestal in less than a minute to climb back to the floor of the standard mouse box. Tranquilized mice will stay on the pedestal for more than 1 minute.

The nature of series [4]: LD50 (lethal dose) in mice. The note with it: mouse, in vivo.
Series [5] has as its system mice. The series can be described thus: Dish test. It counts as in vivo. The settings on record: Mus musculus, ip, intraperitoneal, remaining in the dish for more than 3 minutes, read-out: ED50, Dish test (D). The procedure:
as §1
Dish test: Mice in Petri dishes (10 cm. diameter, 5 cm. higher, partially embedded in wood shavings), climb out in a very short itme, when not treated. Mice remaining in the dish for more than 3 minutes indicates tranquilization. The ED50 equals the dose of test compound at which 50% of the mice remain in the dish. The ED50 (intraperitoneal administration) in this test was 2.0 mg./kg.

Setting [6] is: read-out: ED50, Nicotine antagonism (3) test (Ni): protection of 50% of the mice against death.

The record followed here is patent US4902794A, “Triazolo-benzodiazepines” (The Upjohn Company, priority 1983, dated 1990).

The structures appear in SMILES notation. A value given as a limit tells only on which side of the number the result lay.

In the case of `CCOCc1nnc2n1-c1ccc(Cl)cc1C(c1ccccc1)=NC2` [B, 8-Chloro-1-(ethoxymethyl)-6-phenyl-4H-s-triazolo[4,3-a][1,4]benzodiazepine], the ED50 (in general, the dose at which the effect has come halfway, by size or by number of responders) in the series on mice [1] is 1 mg/kg; in the series with mice [2] (setting [6]) it was 0.6 mg/kg; in the series on mice [3], 1.4 mg/kg; in the series with mice [5] it was 1.6 mg/kg. For the same compound, the LD50 – broadly, the dose expected to kill half of the subjects tested – in series [4] was greater than 100 mg/kg.

For the compound `O=C(O)CCC(=O)OCc1nnc2n1-c1ccc(Cl)cc1C(c1ccccc1Cl)=NC2` [D, Hydrogensuccinate ester of 8-chloro-1-(hydroxymethyl)-6-(o-chlorophenyl)-4H-s-triazolo[4,3-a][1,4]benzodiazepine], the ED50 came to 0.125 mg/kg with mice [1], 0.09 mg/kg in the series on mice [2] (setting [6]), 0.2 mg/kg in the series with mice [3] and 0.125 mg/kg in the series with mice [5]. The compound further returned an LD50 in series [4] greater than 25 mg/kg.

With `OCc1nnc2n1-c1ccc(Cl)cc1C(c1ccccc1Cl)=NC2` [C, 8-Chloro-1-(hydroxymethyl)-6-(o-chlorophenyl)-4H-s-triazolo[4,3-a][1,4]benzodiazepine], the ED50 in the series with mice [1] is 0.04 mg/kg; with mice [2] (setting [6]) it was 0.032 mg/kg; in the series on mice [3], 0.03 mg/kg; with mice [5], 0.03 mg/kg. The same compound yielded an LD50 in series [4] greater than 100 mg/kg.

`OCc1nnc2n1-c1ccc(Cl)cc1C(c1ccccc1)=NC2` [A, 8-chloro-1-(hydroxymethyl)-6-phenyl-4H-s-triazolo[4,3-a][1,4]benzodiazepine]: the ED50 with mice [1] turned out to be 0.63 mg/kg; in the series on mice [2] (read-out: ED50, Nicotine antagonism (2) test: dosage protecting 50% of the mice against tonic extensor fits), 0.08 mg/kg; with mice [2] (setting [6]), 0.1 mg/kg; with mice [3], 1.56 mg/kg; in the series on mice [5], 2 mg/kg. Further, the LD50 in series [4] is greater than 100 mg/kg.
